Source: PubChem BioAssay (NCI)
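Assay format: 96-well plates, 48-hour exposure. The concentration for full growth arrest is given as TGI.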

Experiments:
Experiment in all cases: NCI-60 cell line screen, 48 h
CCRF-CEM leukemia = tested on: CCRF-CEM leukemia
A549 NSCLC = tested on: A549 NSCLC
HS 578T breast = tested on: HS 578T breast
SN12C renal = tested on: SN12C renal
NCI-H460 lung = tested on: NCI-H460 lung
COLO 205 colon = tested on: COLO 205 colon
MOLT-4 leukemia = tested on: MOLT-4 leukemia
SK-MEL-5 melanoma = tested on: SK-MEL-5 melanoma
SK-OV-3 ovarian = tested on: SK-OV-3 ovarian
SNB-75 CNS = tested on: SNB-75 CNS
DU-145 prostate = tested on: DU-145 prostate
KM12 colon = tested on: KM12 colon
HCT-15 colon = tested on: HCT-15 colon
HCC-2998 colon = tested on: HCC-2998 colon
RPMI-8226 leukemia = tested on: RPMI-8226 leukemia
UACC-62 melanoma = tested on: UACC-62 melanoma
PC-3 prostate = tested on: PC-3 prostate
SW-620 colon = tested on: SW-620 colon
NCI/ADR-RES ovarian = tested on: NCI/ADR-RES ovarian
RXF 393 renal = tested on: RXF 393 renal
NCI-H23 lung = tested on: NCI-H23 lung
TK-10 renal = tested on: TK-10 renal
MALME-3M melanoma = tested on: MALME-3M melanoma
OVCAR-4 ovarian = tested on: OVCAR-4 ovarian
EKVX NSCLC = tested on: EKVX NSCLC
OVCAR-8 ovarian = tested on: OVCAR-8 ovarian
HOP-62 NSCLC = tested on: HOP-62 NSCLC
LOX IMVI melanoma = tested on: LOX IMVI melanoma
U251 CNS = tested on: U251 CNS
UO-31 renal = tested on: UO-31 renal
SK-MEL-2 melanoma = tested on: SK-MEL-2 melanoma
HL-60(TB) leukemia = tested on: HL-60(TB) leukemia
SK-MEL-28 melanoma = tested on: SK-MEL-28 melanoma
A498 renal = tested on: A498 renal
SF-295 CNS = tested on: SF-295 CNS
SNB-19 CNS = tested on: SNB-19 CNS
CAKI-1 renal = tested on: CAKI-1 renal
NCI-H226 lung = tested on: NCI-H226 lung
MDA-N = tested on: MDA-N
OVCAR-5 ovarian = tested on: OVCAR-5 ovarian
IGROV1 ovarian = tested on: IGROV1 ovarian
T-47D breast = tested on: T-47D breast
K-562 leukemia = tested on: K-562 leukemia
SR leukemia = tested on: SR leukemia
786-0 renal = tested on: 786-0 renal
SF-539 CNS = tested on: SF-539 CNS
HCT-116 colon = tested on: HCT-116 colon
ACHN renal = tested on: ACHN renal
UACC-257 melanoma = tested on: UACC-257 melanoma
NCI-H522 lung = tested on: NCI-H522 lung
MDA-MB-435 = tested on: MDA-MB-435
HT29 colon = tested on: HT29 colon
SF-268 CNS = tested on: SF-268 CNS
MDA-MB-231 breast = tested on: MDA-MB-231 breast
BT-549 breast = tested on: BT-549 breast
HOP-92 NSCLC = tested on: HOP-92 NSCLC
MCF7 breast = tested on: MCF7 breast
OVCAR-3 ovarian = tested on: OVCAR-3 ovarian
M14 melanoma = tested on: M14 melanoma

Cc1cc(C[C@H]2O[C@@H]3OC(C)(C)O[C@@H]3[C@H]3OC(C)(C)O[C@H]32)c2ccccc2n1 was tested, and the TGI (CCRF-CEM leukemia) was greater than 100 µM, the TGI (A549 NSCLC) was greater than 100 µM and the TGI (HS 578T breast) was greater than 100 µM. It also gave a TGI (SN12C renal) greater than 100 µM, a TGI (NCI-H460 lung) greater than 100 µM and a TGI (COLO 205 colon) greater than 100 µM. It also gave a TGI (MOLT-4 leukemia) greater than 100 µM, a TGI (SK-MEL-5 melanoma) greater than 100 µM and a TGI (SK-OV-3 ovarian) greater than 100 µM. It also gave a TGI (SNB-75 CNS) greater than 100 µM, a TGI (DU-145 prostate) greater than 100 µM and a TGI (KM12 colon) greater than 100 µM. For the same compound, the TGI (HCT-15 colon) was greater than 100 µM, the TGI (HCC-2998 colon) was greater than 100 µM and the TGI (RPMI-8226 leukemia) was greater than 100 µM. For the same compound, the TGI (UACC-62 melanoma) was greater than 100 µM, the TGI (PC-3 prostate) was greater than 100 µM and the TGI (SW-620 colon) was greater than 100 µM. The TGI (NCI/ADR-RES ovarian) was greater than 100 µM, the TGI (RXF 393 renal) was greater than 100 µM and the TGI (NCI-H23 lung) was greater than 100 µM. For the same compound, the TGI (TK-10 renal) was greater than 100 µM, the TGI (MALME-3M melanoma) was greater than 100 µM and the TGI (OVCAR-4 ovarian) was greater than 100 µM. It also gave a TGI (EKVX NSCLC) greater than 100 µM, a TGI (OVCAR-8 ovarian) greater than 100 µM and a TGI (HOP-62 NSCLC) greater than 100 µM. For the same compound, the TGI (LOX IMVI melanoma) was greater than 100 µM, the TGI (U251 CNS) was greater than 100 µM and the TGI (UO-31 renal) was greater than 100 µM. For the same compound, the TGI (SK-MEL-2 melanoma) was greater than 100 µM, the TGI (HL-60(TB) leukemia) was 51.5 µM and the TGI (SK-MEL-28 melanoma) was greater than 100 µM. The TGI (A498 renal) was greater than 100 µM, the TGI (SF-295 CNS) was greater than 100 µM and the TGI (SNB-19 CNS) was greater than 100 µM. The TGI (CAKI-1 renal) was greater than 100 µM, the TGI (NCI-H226 lung) was greater than 100 µM and the TGI (MDA-N) was greater than 100 µM. For the same compound, the TGI (OVCAR-5 ovarian) was greater than 100 µM, the TGI (IGROV1 ovarian) was greater than 100 µM and the TGI (T-47D breast) was greater than 100 µM. For the same compound, the TGI (K-562 leukemia) was greater than 100 µM, the TGI (SR leukemia) was greater than 100 µM and the TGI (786-0 renal) was greater than 100 µM. The TGI (SF-539 CNS) was greater than 100 µM, the TGI (HCT-116 colon) was greater than 100 µM and the TGI (ACHN renal) was greater than 100 µM. It also gave a TGI (UACC-257 melanoma) greater than 100 µM, a TGI (NCI-H522 lung) of 94.4 µM and a TGI (MDA-MB-435) greater than 100 µM. The TGI (HT29 colon) was greater than 100 µM and the TGI (SF-268 CNS) was greater than 100 µM.

CCCCCCCCSC1=C(Cl)C(=O)C(OC)=C(OC)C1=O gave a TGI (CCRF-CEM leukemia) greater than 100 µM, a TGI (A549 NSCLC) of 48.4 µM and a TGI (HS 578T breast) of 66.6 µM. It also gave a TGI (SN12C renal) of 18.4 µM, a TGI (NCI-H460 lung) of 69.5 µM and a TGI (MDA-MB-231 breast) of 29 µM. For the same compound, the TGI (COLO 205 colon) was 38 µM, the TGI (SK-MEL-5 melanoma) was 18.6 µM and the TGI (SK-OV-3 ovarian) was greater than 100 µM. It also gave a TGI (SNB-75 CNS) of 46.3 µM, a TGI (DU-145 prostate) of 40.5 µM and a TGI (KM12 colon) of 37.7 µM. The TGI (HCT-15 colon) was 72.5 µM, the TGI (HCC-2998 colon) was 32.4 µM and the TGI (RPMI-8226 leukemia) was greater than 100 µM. For the same compound, the TGI (UACC-62 melanoma) was 24 µM, the TGI (PC-3 prostate) was 31.9 µM and the TGI (SW-620 colon) was 84 µM. For the same compound, the TGI (NCI/ADR-RES ovarian) was greater than 100 µM, the TGI (RXF 393 renal) was 30.3 µM and the TGI (NCI-H23 lung) was 31.5 µM. The TGI (TK-10 renal) was 28.5 µM, the TGI (BT-549 breast) was 31.4 µM and the TGI (MALME-3M melanoma) was 21.8 µM. It also gave a TGI (HOP-92 NSCLC) of 35.1 µM, a TGI (OVCAR-4 ovarian) of 29.8 µM and a TGI (MCF7 breast) of 17.4 µM. It also gave a TGI (EKVX NSCLC) of 24.9 µM, a TGI (OVCAR-8 ovarian) of 30.9 µM and a TGI (HOP-62 NSCLC) of 51.7 µM. The TGI (LOX IMVI melanoma) was 24 µM, the TGI (U251 CNS) was 26.6 µM and the TGI (UO-31 renal) was 25.7 µM. The TGI (SK-MEL-2 melanoma) was 30.9 µM, the TGI (HL-60(TB) leukemia) was 16.8 µM and the TGI (A498 renal) was 27.9 µM. For the same compound, the TGI (OVCAR-3 ovarian) was 23.8 µM, the TGI (SF-295 CNS) was 47.4 µM and the TGI (SNB-19 CNS) was 24.3 µM. The TGI (CAKI-1 renal) was 34.7 µM, the TGI (NCI-H226 lung) was 34.6 µM and the TGI (MDA-N) was 17.6 µM. The TGI (OVCAR-5 ovarian) was 21.1 µM, the TGI (IGROV1 ovarian) was 32.2 µM and the TGI (T-47D breast) was 36.2 µM. The TGI (K-562 leukemia) was greater than 100 µM, the TGI (786-0 renal) was 30 µM and the TGI (SF-539 CNS) was 32.7 µM. It also gave a TGI (HCT-116 colon) of 19.8 µM, a TGI (ACHN renal) of 23 µM and a TGI (UACC-257 melanoma) of 21.4 µM. For the same compound, the TGI (M14 melanoma) was 16.9 µM, the TGI (NCI-H522 lung) was 14.4 µM and the TGI (MDA-MB-435) was 35.4 µM. For the same compound, the TGI (HT29 colon) was 34.8 µM and the TGI (SF-268 CNS) was 28.7 µM.
